The text below walks through data of PMC12143348, “Rapid and reversible fluorescent probe enables repeated snapshot imaging of AMPA receptors during synaptic plasticity” (Science Advances, 2025).

One data set addresses T1, GluA2flip(Q) (Mus musculus, UniProt P23819, DEL765-802).
T1 construct: expressed in transfected cells; host or cells: HEK293T
The experiment in a line: Concentration-dependent binding of fluorophore-ligand conjugates, confocal live imaging of HEK293T cells expressing GluA2.

Another data set deals with GluA1 (Mus musculus, UniProt P23818). The experiment in a line: Concentration-dependent binding of PFQX1(AF488), confocal live imaging of HEK293T cells expressing GluA1. To be noted: n = 3, mean ± s.e.m., read-out: Kd / Affinity of PFQX1(AF488) to GluA1. Here is the method:
(§1) HEK293T cells were cotransfected with plasmids for AMPAR [5′UTR-GluA1^flip(R)-3′UTR, GluA2^flip(Q)-3′UTR, GluA3^flip(Q) (Y454A/R461G), and GluA4^flip(Q)], kainate receptor [GluK2(Q)], auxiliary subunits, or the control vector and transfection marker (EFGP-F or mCherry-F). Fluorophore-ligand conjugates were diluted in Hepes-buffered saline (HBS) buffer [20 mM Hepes (pH 7.4), 107 mM NaCl, 6 mM KCl, 1.2 mM MgSO4, 2 mM CaCl2, and 11.5 mM glucose] and added to the cells. Confocal live imaging was performed with LSM900 (Carl Zeiss) equipped with a 63×, numerical aperture (NA) = 1.4 oil-immersion objective. Fluorescence images were acquired by excitation at 405, 488, 561, or 640 nm derived from diode lasers.
(§2) For evaluating the concentration dependency of fluorophore-ligand conjugates, 0.1 nM probe in HBS was added to the dish. Then, probes in HBS were added stepwise to the dish to a final concentration of 0.3, 1, 3, 10, 30, 100, 300, 1000, and 3000 nM. Cell surface fluorescence intensity was quantified from the line scans of transfection marker positive cells and calculated with subtraction of background by ZEN blue software (Carl Zeiss). The membrane intensity was fitted with KaleidaGraph (Synergy software) to calculate the equilibrium constant value using the following equation: a + (b − a)/(1 + (x/c)^d). The equilibrium constant is regarded as the Kd in this study.

In the next data set the target is T2, GluA4 (Mus musculus, UniProt Q9Z2W8).
T2 construct: expressed in transfected cells; host or cells: HEK293T
Description: Concentration-dependent binding of PFQX1(AF488), confocal live imaging of HEK293T cells expressing GluA4. To be noted: n = 3, read-out: Kd / Affinity of PFQX1(AF488) to GluA4. As to the method: as §1, §2

For another data set, the target named is T3, GluA2flip(R) (Mus musculus, UniProt P23819, DEL765-802/Q607R).
T3 construct: expressed in transfected cells; host or cells: HEK293T
Description: Concentration-dependent binding of PFQX1(AF488) to GluA2flip(R) expressed alone in HEK293T cells. Particulars: n = 3–4, read-out: Kd / Affinity of PFQX1(AF488) to GluA2flip(R) expressed alone (–). Here is the method: as §1
For evaluating the concentration dependency of fluorophore-ligand conjugates, 0.1 nM probe in HBS was added to the dish. Then, probes in HBS were added stepwise to the dish to a final concentration of 0.3, 1, 3, 10, 30, 100, 300, 1000, and 3000 nM. Cell surface fluorescence intensity was quantified from the line scans of transfection marker positive cells and calculated with subtraction of background by ZEN blue software (Carl Zeiss). […]
(A) Concentration-dependent binding of PFQX1(AF488) to GluA2 flip(R) expressed with GSG1L or TARP γ7. […] (B) The surface intensity of PFQX1(AF488) was quantified. […]

The nature of data set [1]: pH-dependency of fluorescent intensity in GTA buffer (spectrofluorophotometer). The class given is physicochemical. Particulars: 2 µM probe in GTA buffer pH 4–10, normalized to pH 10. Here is the method:
Evaluation of the affinity of PFQX-amine
HEK293T cells were co-transfected with GluA2 flip(Q)-3’UTR and mCherry-F as a transfection marker. After washing the cells with HBS, 30 nM PFQX1(AF488) was added to the dish. Then, PFQX-amine in HBS was step-wisely added to the dish to a final […]
performed with confocal microscopy. Cell surface fluorescent intensity was quantified from the line scans of transfection marker positive cells calculated by ZEN blue software and calculated with subtraction of background. The membrane intensity was fitted with KaleidaGraph to calculate the IC50 value using the following equation:a + (b-a)/(1+(x/c)^d). The Ki value was calculated using the Cheng-Prusoff equation: Ki = IC50/(1+[S]/K d). In the equation, [S] and Kd were the concentration and dissociation constant of PFQX1(AF488), respectively. pH-dependency of fluorescent intensity
Fluorescent intensity was determined by spectrofluorophotometer RF-6000 (Shimadzu). […]
glutaric acid, 0.1 M Tris, 0.1 M 2-amino-2-methyl-1,3-propanediol) to a final concentration of 2 µM. pH value of GTA buffer was adjusted to 4, 5, 6, 7, 8, 9, and 10.
Fluorescent intensity was normalized by the intensity at pH 10.
For the evaluation in cells, HEK293T cells expressing GluA2 or primary cultured hippocampal neurons were used. […]

The subject of another data set is AMPARs. Description: Staining of AMPARs in acute cerebellar slices. The class given is binding, mouse. Particulars: 30 nM probe; acute cerebellar slices; incubation at least 5 min. As to the method:
following secondary antibodies were used: donkey anti-mouse CF568 conjugated (Sigma, […]
1:1,000) and anti-rabbit Alexa Fluor Plus 488 conjugated (Invitrogen, A32731, 1,000).
Imaging was performed with confocal microscopy.
With two-step labeling, the cells were labeled as described in “Two -step labeling and PFQX1(AF488)staining in cultured neurons,” followed by immunostaining.
In fig. S9A, the cells were incubated with 500 nM CellTracker Red CMPTX (Invitrogen) instead of Calcein Red AM for 30 min at 37 °C to visualize the intracellular region before the immunostaining.
Preparation and staining of cerebellar acute brain slices
C57BL/6J mice (3 weeks) were anesthetized with isoflurane, and their brains were isolated and immediately transferred to ice-cold cutting solution buffer (120 mM Choline Chloride, 3 mM KCl, 8 mM MgCl2, 1.25 mM NaH2PO4, 28 mM NaHCO3, 22 mM Glucose, and 0.5 mM Sodium ascorbate) gassed with 5% CO2 and 95% O2 and incubated for 5 min. Sagittal cerebellar slices were cut with a microslicer (Neo-linear slicer NLS-MT; DOSAKA EM) in cutting solution buffer and then incubated in ACSF […]
NaHCO3, 10 mM Glucose) gassed with 5% CO 2 and 95% O 2 at 37 °C.
Acute slices were transferred to glass bottom dishes and treated with 30 nM PFQX1(AF488) in HEPES-based ACSF for 5 min. […]
Scale bars, 500 µm. (F) Quantification of probe intensity in Ε. […]

“Also recorded” adds a separate entry of the source.

T1 sequence (P23819 with tags, fused parts or gaps isoform P23819-4 DEL765-802): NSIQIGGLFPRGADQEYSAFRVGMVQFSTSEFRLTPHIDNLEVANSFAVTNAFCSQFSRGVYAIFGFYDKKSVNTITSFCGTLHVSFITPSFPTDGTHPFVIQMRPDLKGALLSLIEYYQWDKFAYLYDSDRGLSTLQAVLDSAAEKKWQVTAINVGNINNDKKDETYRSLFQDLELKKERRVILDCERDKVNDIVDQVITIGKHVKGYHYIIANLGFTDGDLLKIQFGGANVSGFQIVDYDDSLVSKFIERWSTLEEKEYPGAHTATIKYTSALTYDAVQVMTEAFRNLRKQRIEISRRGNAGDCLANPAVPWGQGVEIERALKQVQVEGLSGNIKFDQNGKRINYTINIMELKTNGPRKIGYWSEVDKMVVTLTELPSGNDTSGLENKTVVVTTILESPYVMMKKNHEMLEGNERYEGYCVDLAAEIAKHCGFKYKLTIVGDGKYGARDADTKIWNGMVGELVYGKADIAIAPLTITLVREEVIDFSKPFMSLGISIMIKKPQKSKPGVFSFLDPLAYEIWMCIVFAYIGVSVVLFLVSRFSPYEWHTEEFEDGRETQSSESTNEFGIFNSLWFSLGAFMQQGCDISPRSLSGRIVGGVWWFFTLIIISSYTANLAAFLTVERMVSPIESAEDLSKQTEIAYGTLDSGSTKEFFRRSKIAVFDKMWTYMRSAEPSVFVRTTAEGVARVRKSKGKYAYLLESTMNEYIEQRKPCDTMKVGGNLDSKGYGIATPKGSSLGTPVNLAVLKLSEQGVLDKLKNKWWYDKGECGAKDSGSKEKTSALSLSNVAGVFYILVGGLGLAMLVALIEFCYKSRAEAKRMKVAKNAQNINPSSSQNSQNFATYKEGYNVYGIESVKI
T3 sequence (P23819 with tags, fused parts or gaps isoform P23819-4 Q607R/DEL765-802): as the sequence (P23819 with tags, fused parts or gaps isoform P23819-4 DEL765-802) above, with Q583R counted along it
T2 sequence (Q9Z2W8 21-902): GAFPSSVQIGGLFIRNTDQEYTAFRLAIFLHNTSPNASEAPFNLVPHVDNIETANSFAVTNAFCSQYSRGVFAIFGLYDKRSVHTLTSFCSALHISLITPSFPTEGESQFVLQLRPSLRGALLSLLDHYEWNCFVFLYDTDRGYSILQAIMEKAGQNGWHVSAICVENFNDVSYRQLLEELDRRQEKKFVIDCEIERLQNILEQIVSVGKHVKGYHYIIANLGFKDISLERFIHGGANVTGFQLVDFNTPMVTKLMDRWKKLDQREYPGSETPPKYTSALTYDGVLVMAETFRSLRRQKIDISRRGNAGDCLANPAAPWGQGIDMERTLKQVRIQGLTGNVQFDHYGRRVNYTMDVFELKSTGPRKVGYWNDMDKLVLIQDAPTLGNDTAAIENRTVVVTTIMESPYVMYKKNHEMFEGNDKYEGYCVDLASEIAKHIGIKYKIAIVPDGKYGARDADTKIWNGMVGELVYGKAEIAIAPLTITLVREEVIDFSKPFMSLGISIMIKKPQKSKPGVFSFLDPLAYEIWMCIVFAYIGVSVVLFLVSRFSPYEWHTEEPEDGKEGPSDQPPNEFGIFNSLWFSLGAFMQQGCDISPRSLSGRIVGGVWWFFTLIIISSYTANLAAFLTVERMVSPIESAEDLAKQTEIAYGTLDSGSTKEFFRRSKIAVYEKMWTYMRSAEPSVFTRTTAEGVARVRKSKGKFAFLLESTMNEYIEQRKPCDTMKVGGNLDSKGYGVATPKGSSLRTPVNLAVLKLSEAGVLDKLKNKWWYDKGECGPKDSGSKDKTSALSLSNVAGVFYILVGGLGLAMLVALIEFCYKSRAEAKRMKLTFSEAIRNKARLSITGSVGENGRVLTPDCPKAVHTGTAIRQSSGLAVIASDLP
Chain of GluA1 (P23818 19-907): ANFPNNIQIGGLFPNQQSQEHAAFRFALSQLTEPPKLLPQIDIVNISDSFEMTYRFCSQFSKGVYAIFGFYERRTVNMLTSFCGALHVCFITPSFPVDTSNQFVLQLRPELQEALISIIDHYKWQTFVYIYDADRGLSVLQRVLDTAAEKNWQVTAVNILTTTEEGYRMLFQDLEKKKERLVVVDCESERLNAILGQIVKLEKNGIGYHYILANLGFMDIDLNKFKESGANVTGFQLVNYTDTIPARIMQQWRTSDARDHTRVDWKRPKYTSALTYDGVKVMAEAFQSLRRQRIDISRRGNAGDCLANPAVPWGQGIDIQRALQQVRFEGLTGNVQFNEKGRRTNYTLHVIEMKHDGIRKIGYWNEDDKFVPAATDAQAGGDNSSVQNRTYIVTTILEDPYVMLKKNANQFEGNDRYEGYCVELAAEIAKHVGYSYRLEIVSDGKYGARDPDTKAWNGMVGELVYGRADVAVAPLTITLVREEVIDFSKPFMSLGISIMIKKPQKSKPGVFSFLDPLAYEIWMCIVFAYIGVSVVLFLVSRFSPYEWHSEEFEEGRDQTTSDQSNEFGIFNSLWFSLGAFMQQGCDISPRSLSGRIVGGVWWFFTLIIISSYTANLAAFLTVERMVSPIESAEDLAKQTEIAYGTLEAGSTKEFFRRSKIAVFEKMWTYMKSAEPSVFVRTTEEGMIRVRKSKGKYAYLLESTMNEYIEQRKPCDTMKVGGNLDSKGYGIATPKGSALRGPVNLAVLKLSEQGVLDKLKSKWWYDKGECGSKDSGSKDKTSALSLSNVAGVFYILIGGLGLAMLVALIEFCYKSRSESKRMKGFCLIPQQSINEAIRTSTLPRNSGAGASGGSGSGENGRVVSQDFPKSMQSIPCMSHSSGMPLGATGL

For the compound `N=c1ccc2c(-c3ccc(C(=O)NCc4ccn(-c5cc6c(cc5C(F)(F)F)[nH]c(=O)c(=O)n6CC(=O)O)c4)cc3C(=O)O)c3ccc(N)c(S(=O)(=O)O)c3oc-2c1S(=O)(=O)O` [PFQX1(AF488)], the “cell-surface fluorescence / affinity to AMPARs (in words)” value on GluA2flip(Q) (HEK293T cells expressing GluA2) is listed as “high affinity”. The Kd is 37.2 ± 9.8 nM on GluA2flip(Q) (HEK293T cells expressing GluA2flip(Q), cell-surface fluorescence, mean ± SEM, n = 3, read-out: dissociation constant (Kd) / Affinity to GluA2); 78.7 ± 15.4 nM on GluA1; 20.2 ± 1.2 nM at GluA4; 32.3 ± 4.7 nM at GluA2flip(R). Moreover, in data set [1], the “pH dependency of the fluorescence intensity” value is “relatively unaffected at pH 5 to 10; also recorded: pH-independent manner in the pH 5 to 10 range”. In addition, the “reversibility of binding (medium exchange) in slices” value with AMPARs was “can be washed out by the medium exchange”.
